These results are taken from article PMC9266914, “Broad Spectrum Functional Activity of Structurally Related Monoanionic Au(III) Bis(Dithiolene) Complexes” (International Journal of Molecular Sciences, 2022).

For data set [1], the system named is A2780 ovarian cancer cells. As to the kind of experiment: MTT cytotoxicity assay in A2780 (cisplatin sensitive) ovarian cancer cells. It is filed as cell-based, human. A digest of the protocol:
(§1)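 Cells in RPMI-1640 with 10% FBS exposed to complexes at 0.01–100 μM for 24 and/or 48 h at 37 °C. Viability by colorimetric MTT; IC50 derived from dose–response curves.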
Background: Formazan colour is commonly taken as a measure of viable cells.

Data set [2] concerns P. berghei hepatic stage. As to the kind of experiment: In vitro activity against the hepatic stage of P. berghei infection (luciferase, Huh7 cells). The format is cell-based, Plasmodium berghei. To be noted: hepatic stage, Huh7 cells, 46 hpi. As for the experimental part:
The in vitro liver stage activity of gold complexes was assessed against P. berghei-infected Huh7 cells, as previously described. Briefly, Huh7 cells were cultured in RPMI-1640 medium supplemented with 10% (v/v) fetal bovine serum, 1% (v/v) penicillin/streptomycin, 1% (v/v) glutamine, 1% (v/v) non-essential amino acids and 10 mM HEPES. On the day prior to infection, Huh7 cells were seeded in 96-well plates at a density of approximately 3.1 × 10^4 cell/cm^2 and incubated at 37 °C, 5% CO2. Stock solutions of the complexes were initially prepared in DMSO and serially diluted in infection medium, i.e., culture medium supplemented with gentamicin (50 µg/mL) and fungizone (0.8 µg/mL), to obtain the test concentrations. As a control, DMSO was diluted in infection medium to a percentage that equals that of the highest compound concentrations tested. These dilutions were added to the cells in triplicates and incubated for 1 h at 37 °C, 5% CO2, after which 1 × 10^4 luciferase-expressing P. berghei sporozoites were added to each well. Plates were centrifuged at 1800× g for 5 min at room temperature and incubated for the duration of the assay. At 46 h post-infection (hpi), the impact of each compound concentration on cell viability was assessed by the Alamar Blue (Invitrogen, Buckinghamshire, UK) assay, according to the manufacturer’s recommendations. Infection was next assessed by bioluminescence, employing the Firefly Luciferase Assay Kit 2.0 (Biotium, Fremont, CA, USA), according to the manufacturer’s recommendations. For IC50 determination, nonlinear regression analysis was employed to fit the normalized results of the dose–response curves, using GraphPad Prism 8 (GraphPad software, La Jolla, CA, USA).

Data set [3] relates to OVCAR8 ovarian cancer cells. As to the kind of experiment: MTT cytotoxicity assay in OVCAR8 (cisplatin resistant) ovarian cancer cells. It is filed as cell-based, human. The note with it: 48 h incubation. The essentials: as §1
For data set [4], the system named is TZM-bl cells. Description: alamarBlue cytotoxicity in TZM-bl cells. It is filed as cell-based. The procedure:
The in vitro cytotoxicity of auranofin, [P][AuSBu(=S)] and [P][AuSEt(=S)] was evaluated in TZM-bl cells using alamarBlue cell viability reagent (Life Technologies, Carlsbad, CA, USA). TZM-bl cells (AIDS Research and Reference Reagent Program, National Institutes of Health, Bethesda, MD, USA) were cultured in complete growth medium that consists of Dulbecco’s minimal essential medium (DMEM) supplemented with 10% fetal bovine serum (FBS), 100 U/ml of penicillin-streptomycin (Gibco/Invitrogen, Waltham, MA, USA), 1 mM of sodium pyruvate (Gibco/Invitrogen, Carlsbad, CA, USA), 2 mM of L-glutamine (Gibco/Invitrogen, USA) and 1 mM of non-essential amino acids (Gibco/Invitrogen, USA). Cells were cultured in the presence and absence of serial-fold dilutions of the compounds. At least two independent experiments were performed for each cytotoxicity analysis. Each dilution of each compound was performed in triplicate wells. For each assay we had medium controls (only growth medium), cell controls (cells without test compound) and cytotoxicity controls (a compound that kill cells). The cytotoxicity of each compound was expressed by the 50% cytotoxic concentration (CC50), which is the concentration of compound causing 50% decrease in cellular viability.
For orientation: Resazurin is reduced to fluorescent resorufin, in cell work by metabolically active cells.

Data set [5] has as its system HIV-1 SG3.1. As to the kind of experiment: Single-round viral infectivity assay in TZM-bl reporter cells. It is filed as cell-based. To be noted: SG3.1 isolate, 48 h, in words. The procedure:
The HIV-1 SG3.1 subtype B strain was obtained by transfection of HEK293T cells with pSG3.1 plasmid using jetPrime transfection reagent (Polyplus-tranfection SA, Illkirch, France) according to the manufacturer’s instructions. The 50% tissue culture infectious dose (TCID50) of the virus was determined in a single-round viral infectivity assay using a luciferase reporter gene assay in TZM-bl cells and calculated using the statistical method of Reed and Muench.
The antiviral activity of Auranofin, [P][AuSEt(=S)] and [P][AuSBu(=S)] compounds was determined in a single-round viral infectivity assay using TZM-bl reporter cells, as previously described. Briefly, TZM-bl cells were infected with 200 TCID50 of SG3.1 in the presence of serial-fold dilutions of the compounds in growth medium, supplemented with DEAE-dextran. After 48 h of infection, luciferase expression was quantified with Pierce Firefly Luc One-Step Glow Assay Kit (ThermoFisher Scientific, Rockford, IL, USA) according to the manufacturer’s instructions.
At least two independent experiments were performed for each antiviral activity analysis. The assay was set up in triplicate wells. Virus controls and cell controls were used.

Where [6] appears, read: 24 h incubation, read-out: IC50 A2780, 24 h.
[7] abbreviates: 48 h incubation, read-out: IC50 A2780, 48 h.

Like-named read-outs stand apart in the source and are kept apart here.

Regarding `CCn1c2c(sc1=[Se])[S][Au-]1([S]c3sc(=[Se])n(CC)c3[S]1)[S]2.c1ccc([P+](c2ccccc2)(c2ccccc2)c2ccccc2)cc1` [[P][AuSEt(=Se)]], the IC50 in data set [1] (setting [6]) was 0.71 ± 0.12 µM; in data set [1] (setting [7]), 0.22 ± 0.11 µM; in data set [2], 0.416 ± 0.123 µM; in data set [3], 0.97 ± 0.18 µM.
Turning to `CCn1c2c(sc1=S)[S][Au-]1([S]c3sc(=S)n(CC)c3[S]1)[S]2.c1ccc([P+](c2ccccc2)(c2ccccc2)c2ccccc2)cc1` [[P][AuSEt(=S)]], the midpoint of cytotoxicity in data set [4], the CC50, lay at 4.92 µM. In data set [4], the “cytotoxicity in TZM-bl culture cells” value is listed as “No significant cytotoxicity”. Moreover, the IC50 in data set [1] (setting [6]) was determined as 0.58 ± 0.2 µM; in data set [1] (setting [7]), 0.18 µM; in data set [2], 0.474 ± 0.11 µM; in data set [3], 0.85 ± 0.19 µM. Further, the anti-HIV-1 activity entry in data set [5] was “none of the compounds presented anti-HIV-1 activity”.
For `CCCCn1c2c(sc1=S)[S][Au-]1([S]c3sc(=S)n(CCCC)c3[S]1)[S]2.c1ccc([P+](c2ccccc2)(c2ccccc2)c2ccccc2)cc1` [[P][AuSBu(=S)]], the CC50 result in data set [4] is on record as “not possible to calculate”. The “cytotoxicity in TZM-bl culture cells” value in data set [4] is reported as “No significant cytotoxicity”. Moreover, the IC50 in data set [1] (setting [6]) was 1.38 ± 0.28 µM; in data set [1] (setting [7]), 0.95 ± 0.05 µM; in data set [2], 0.47 ± 0.115 µM; in data set [3] it was 1.41 ± 0.56 µM. For the same compound, the anti-HIV-1 activity result in data set [5] is reported as “none of the compounds presented anti-HIV-1 activity”.
With `CC(=O)OC[C@H]1O[C@@H]([S-])[C@H](OC(C)=O)[C@@H](OC(C)=O)[C@@H]1OC(C)=O.CCP(CC)CC.[Au+]` [Auranofin, reference compound], the CC50 in data set [4] (TZM-bl cells, alamarBlue, read-out: CC50) was 3.21 µM. In addition, the 50% inhibitory concentration (IC50) in data set [1] (setting [6]) stood at 2.01 ± 0.71 µM; in data set [3], 1.04 ± 0.41 µM. Further, the anti-HIV-1 activity entry in data set [5] was “none of the compounds presented anti-HIV-1 activity”.
Consider `CC(C)n1c2c(sc1=S)[Se][Au-]1([Se]c3sc(=S)n(C(C)C)c3[Se]1)[Se]2.c1ccc([P+](c2ccccc2)(c2ccccc2)c2ccccc2)cc1` [[P][AuSeiPr(=S)]], for which the IC50 stood at 3.74 ± 1.22 µM in data set [1] (setting [6]), 0.68 ± 0.18 µM in data set [1] (setting [7]), 0.748 ± 0.0702 µM in data set [2] and 3.86 ± 0.91 µM in data set [3].

In general, IC50 refers to the point on the concentration scale where inhibition reaches its midpoint. Broadly, the CC50 is the concentration that lowers cell viability or growth by half.
